Laboratory results taken from US20230339939A1 (Bayer Aktiengesellschaft, priority 2020, published 2023).
Where two headings read alike, the source gives them in different places.

Experiments:
CSNK1D = CSNK1D (Homo sapiens (Human), UniProt P48730); assay: CSNK1D Assay (ADP-Glo, 1 μM ATP); type: biochemical; conditions: median, read-out: CSNK1D IC50 [mol/l] (median)
Procedure: CSNK1D-inhibitory activity of compounds of the present invention in presence of 1 μM adenosine-tri-phosphate (ATP) was quantified employing the CSNK1 D assay as described in the following paragraphs. In essence, the enzyme activity is measured by quantification of the adenosine-di-phosphate (ADP), which is generated as a co-product of the enzyme reaction, via the “ADP-Glo™ Kinase Assay” kit from the company Promega. This detection system works as follows: In a first step the ATP not consumed in the kinase reaction is quantitatively converted to cAMP employing an adenylate cyclase (“ADP-Glo-reagent”), then the adenylate cyclase is stopped and the ADP generated in the kinase reaction converted to ATP which generates in a luciferase-based reaction a glow-luminescence signal (“Kinase Detection Reagent”).
Recombinant fusion protein of N-terminal Glutathion-S-Transferase (GST) and full-length human CSNK1D, expressed by baculovirus infected insect cells and purified via Glutathion affinity chromatography, was purchased from Life Technologies (product no. PV3665) and used as enzyme. As substrate for the kinase reaction the biotinylated peptide Btn-Ahx-[…] (C-terminus in amide form) was used which can be purchased e.g. from the company Biosyntan (Berlin-Buch, Germany).
For the assay 50 nl of a 100 fold concentrated solution of the test compound in DMSO was pipetted into a white 1536-well microtiter plate (Greiner Bio-One, Frickenhausen, Germany), 2 μL of a solution of CSNK1D in aqueous assay buffer [50 mM HEPES pH 7.5, 10% (v/v) glycerol, 10 mM MgCl2, 50 mM NaCl, 1 mM dithiothreitol, 0.01% (w/v) bovine serum albumin, 0.01% (v/v) Triton X-100] were added and the mixture was incubated for 15 min at 22° C. to allow pre-binding of the test compounds to the enzyme before the start of the kinase reaction. […] The concentration of CSNK1D was adjusted depending of the activity of the enzyme lot and was chosen appropriate to have the assay in the linear range, a typical concentration is about 0.5 ng/μL. The reaction was stopped by the addition of 2.5 μL of “ADP-Glo-reagent” (1:1.5 fold diluted with water) and the resulting mixture was incubated at 22° C. for 1 h to convert the ATP not consumed in the kinase reaction completely […]. Subsequently 2.5 μL of the “kinase detection reagent” (1.2 fold more concentrated than recommended by the producer) were added, the resulting mixture was incubated at 22° C. for 1 h and then the luminescence measured with a suitable measurement instrument (e.g. Viewlux™ from Perkin-Elmer). The amount of emitted light was taken as a measure for the amount of ADP generated and thereby for the activity of the CSNK1D.

[1] = biological target: wild-type Epidermal Growth Factor Receptor (EGFR) (Homo sapiens (Human), UniProt P00533); assay: WT-EGFR Kinase Assay (TR-FRET, 2 mM ATP); type: biochemical
Sequence of wild-type Epidermal Growth Factor Receptor (EGFR) (P00533 669-1210): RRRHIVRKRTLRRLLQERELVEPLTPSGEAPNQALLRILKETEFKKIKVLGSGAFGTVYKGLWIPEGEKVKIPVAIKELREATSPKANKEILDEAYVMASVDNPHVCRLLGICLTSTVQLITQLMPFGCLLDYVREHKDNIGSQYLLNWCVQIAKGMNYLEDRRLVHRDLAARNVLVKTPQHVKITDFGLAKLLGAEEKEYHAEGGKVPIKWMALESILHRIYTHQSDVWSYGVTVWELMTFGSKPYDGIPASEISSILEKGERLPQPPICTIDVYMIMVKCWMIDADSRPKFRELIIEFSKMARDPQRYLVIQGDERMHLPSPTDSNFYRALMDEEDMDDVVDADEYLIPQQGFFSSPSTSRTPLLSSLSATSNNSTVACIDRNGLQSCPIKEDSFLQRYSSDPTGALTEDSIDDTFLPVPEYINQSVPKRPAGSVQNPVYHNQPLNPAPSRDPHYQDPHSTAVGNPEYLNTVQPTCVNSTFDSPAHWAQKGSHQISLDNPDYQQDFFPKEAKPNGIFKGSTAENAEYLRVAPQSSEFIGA
Summary of the method: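 GST-fused human EGFR fragment (R669-A1210) from Sf9 cells, typically 7.6 pg/μL, pre-incubated with compound 15 min at 22° C in Hepes pH 7.0 buffer with MgCl2, DTT and vanadate; biotinylated peptide substrate. After EDTA stop, phosphopeptide detected by TR-FRET (anti-phosphotyrosine Tb-cryptate/streptavidin-XL665), 665/620 nm emission ratio.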

[2] = read-out: EGFR Wildtype 2 mM ATP IC50 [mol/l] (median)

Sequence of CSNK1D (P48730 whole entry): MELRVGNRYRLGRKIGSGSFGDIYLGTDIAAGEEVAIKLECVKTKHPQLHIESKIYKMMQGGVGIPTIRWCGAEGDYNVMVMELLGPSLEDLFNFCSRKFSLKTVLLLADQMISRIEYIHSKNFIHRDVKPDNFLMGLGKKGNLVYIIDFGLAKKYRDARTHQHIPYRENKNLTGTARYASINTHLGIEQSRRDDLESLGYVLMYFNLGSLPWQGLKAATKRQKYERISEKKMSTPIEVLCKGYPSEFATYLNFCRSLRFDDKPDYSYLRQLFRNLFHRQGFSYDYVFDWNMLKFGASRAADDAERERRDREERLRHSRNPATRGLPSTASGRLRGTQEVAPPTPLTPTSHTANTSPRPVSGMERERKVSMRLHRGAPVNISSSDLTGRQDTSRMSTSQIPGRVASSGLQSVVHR

Structure (SMILES) | IC50 (CSNK1D) [nM] | IC50 ([1]; median) [nM] | IC50 [1, 2] [nM]
O=C(Cc1ccc(F)cc1)Nc1cc(-c2[nH]c3cccnc3c2-c2ccccc2)ccn1 [Example 14, 2-(4-fluorophenyl)-N-[4-(3-phenyl-1H-pyrrolo[3,2-b]pyridin-2-yl)pyridin-2-yl]acetamide] | 2.64 | > 20000 | 19100
O=C(Cc1ccc(F)cc1)Nc1cc(-c2[nH]c3cccnc3c2-c2cccc(F)c2)ccn1 [Example 15, 2-(4-fluorophenyl)-N-{4-[3-(3-fluorophenyl)-1H-pyrrolo[3,2-b]pyridin-2-yl]pyridin-2-yl}acetamide] | 3.4 | – | > 20000
O=C(Cc1ccc(F)cc1)Nc1cc(-c2[nH]c3cccnc3c2-c2ncccn2)ccn1 [Example 16, 2-(4-fluorophenyl)-N-{4-[3-(pyrimidin-2-yl)-1H-pyrrolo[3,2-b]pyridin-2-yl]pyridin-2-yl}acetamide] | 9.02 | 17500 | > 20000
O=C(Cc1ccc(F)cc1)Nc1cc(-c2[nH]c3cccnc3c2-c2ccc(Cl)s2)ccn1 [Example 17, N-{4-[3-(5-chlorothiophen-2-yl)-1H-pyrrolo[3,2-b]pyridin-2-yl]pyridin-2-yl}-2-(4-fluorophenyl)acetamide] | 3.15 | – | > 20000
O=C(Cc1ccc(F)cc1)Nc1cc(-c2[nH]c3ccnnc3c2-c2ccccn2)ccn1 [Example 21, 2-(4-fluorophenyl)-N-{4-[7-(pyridin-2-yl)-5H-pyrrolo[3,2-c]pyridazin-6-yl]pyridin-2-yl}acetamide] | 3.96 | – | > 20000
O=C(Cc1ccc(F)cc1)Nc1cc(-c2[nH]c3c(Cl)ccnc3c2-c2ccccn2)ccn1 [Example 22, N-{4-[7-chloro-3-(pyridin-2-yl)-1H-pyrrolo[3,2-b]pyridin-2-yl]pyridin-2-yl}-2-(4-fluorophenyl)acetamide] | 5.84 | – | > 20000
O=C(Cc1ccc(F)cc1)Nc1cc(-c2[nH]c3ccc(Cl)nc3c2-c2ccccn2)ccn1 [Example 23, N-{4-[5-chloro-3-(pyridin-2-yl)-1H-pyrrolo[3,2-b]pyridin-2-yl]pyridin-2-yl}-2-(4-fluorophenyl)acetamide] | 3.18 | – | > 20000
Cc1cc2[nH]c(-c3ccnc(NC(=O)Cc4ccc(F)cc4)c3)c(-c3ccccn3)c2nc1F [Example 27, N-{4-[5-fluoro-6-methyl-3-(pyridin-2-yl)-1H-pyrrolo[3,2-b]pyridin-2-yl]pyridin-2-yl}-2-(4-fluorophenyl)acetamide] | 5.11 | – | > 20000
COc1ccnc2c(-c3ccccn3)c(-c3ccnc(NC(=O)Cc4ccc(F)cc4)c3)[nH]c12 [Example 31, 2-(4-fluorophenyl)-N-{4-[7-methoxy-3-(pyridin-2-yl)-1H-pyrrolo[3,2-b]pyridin-2-yl]pyridin-2-yl}acetamide] | 4.4 | – | > 20000
COc1ccc2[nH]c(-c3ccnc(NC(=O)Cc4ccc(F)cc4)c3)c(-c3ccccn3)c2n1 [Example 32, 2-(4-fluorophenyl)-N-{4-[5-methoxy-3-(pyridin-2-yl)-1H-pyrrolo[3,2-b]pyridin-2-yl]pyridin-2-yl}acetamide] | 7.52 | – | > 20000
C=Cc1ccnc2c(-c3ccccn3)c(-c3ccnc(NC(=O)Cc4ccc(F)cc4)c3)[nH]c12 [Example 33, N-{4-[7-ethenyl-3-(pyridin-2-yl)-1H-pyrrolo[3,2-b]pyridin-2-yl]pyridin-2-yl}-2-(4-fluorophenyl)acetamide] | 9.16 | – | 15100
CCc1ccnc2c(-c3ccccn3)c(-c3ccnc(NC(=O)Cc4ccc(F)cc4)c3)[nH]c12 [Example 34, N-{4-[7-ethyl-3-(pyridin-2-yl)-1H-pyrrolo[3,2-b]pyridin-2-yl]pyridin-2-yl}-2-(4-fluorophenyl)acetamide] | 3.84 | – | > 20000
O=C(Cc1ccc(F)cc1)Nc1cc(-c2[nH]c3c(C4CC4)ccnc3c2-c2ccccn2)ccn1 [Example 35, N-{4-[7-cyclopropyl-3-(pyridin-2-yl)-1H-pyrrolo[3,2-b]pyridin-2-yl]pyridin-2-yl}-2-(4-fluorophenyl)acetamide] | 4.19 | – | > 20000
COCCc1ccnc2c(-c3ccccn3)c(-c3ccnc(NC(=O)Cc4ccc(F)cc4)c3)[nH]c12 [Example 36, 2-(4-fluorophenyl)-N-{4-[7-(2-methoxyethyl)-3-(pyridin-2-yl)-1H-pyrrolo[3,2-b]pyridin-2-yl]pyridin-2-yl}acetamide] | 14.8 | – | > 20000
CN1CCN(c2ccnc3c(-c4ccccn4)c(-c4ccnc(NC(=O)Cc5ccc(F)cc5)c4)[nH]c23)CC1 [Example 38, 2-(4-fluorophenyl)-N-{4-[7-(4-methylpiperazin-1-yl)-3-(pyridin-2-yl)-1H-pyrrolo[3,2-b]pyridin-2-yl]pyridin-2-yl}acetamide] | 5.59 | – | > 20000
CN1CCC(N(C)c2ccnc3c(-c4ccccn4)c(-c4ccnc(NC(=O)Cc5ccc(F)cc5)c4)[nH]c23)CC1 [Example 39, 2-(4-fluorophenyl)-N-(4-{7-[methyl(1-methylpiperidin-4-yl)amino]-3-(pyridin-2-yl)-1H-pyrrolo[3,2-b]pyridin-2-yl}pyridin-2-yl)acetamide] | 13.6 | – | 1090
O=C(Cc1ccc(F)cc1)Nc1cc(-c2[nH]c3c(N4CCCC4=O)ccnc3c2-c2ccccn2)ccn1 [Example 40, 2-(4-fluorophenyl)-N-{4-[7-(2-oxopyrrolidin-1-yl)-3-(pyridin-2-yl)-1H-pyrrolo[3,2-b]pyridin-2-yl]pyridin-2-yl}acetamide] | 10.3 | – | > 20000
Cc1cc(CC(=O)Nc2cc(-c3[nH]c4cccnc4c3-c3ccccn3)ccn2)ccc1F [Example 41, 2-(4-fluoro-3-methylphenyl)-N-{4-[3-(pyridin-2-yl)-1H-pyrrolo[3,2-b]pyridin-2-yl]pyridin-2-yl}acetamide] | 12.1 | – | > 20000
O=C(Cc1ccc(Cl)cc1)Nc1cc(-c2[nH]c3cccnc3c2-c2ccccn2)ccn1 [Example 42, 2-(4-chlorophenyl)-N-{4-[3-(pyridin-2-yl)-1H-pyrrolo[3,2-b]pyridin-2-yl]pyridin-2-yl}acetamide] | 3.33 | – | > 20000
O=C(Cc1ccccc1)Nc1cc(-c2[nH]c3cccnc3c2-c2ccccn2)ccn1 [Example 46, 2-phenyl-N-(4-(3-(pyridin-2-yl)-1H-pyrrolo[3,2-b]pyridin-2-yl)pyridin-2-yl)acetamide] | 5.77 | – | > 20000
O=C(Cc1ccc(F)cc1)Nc1cc(-c2[nH]c3cccnc3c2-c2ncccn2)ccn1 [Example 51, 2-(4-fluorophenyl)-N-{4-[3-(pyrimidin-2-yl)-1H-pyrrolo[3,2-b]pyridin-2-yl]pyridin-2-yl}acetamide] | 20 | – | > 20000
CC(C(=O)Nc1cc(-c2[nH]c3cc(Cl)cnc3c2-c2ccccn2)ccn1)c1ccc(F)cc1 (stereo not shown) [Example 52, N-{4-[6-chloro-3-(pyridin-2-yl)-1H-pyrrolo[3,2-b]pyridin-2-yl]pyridin-2-yl}-2-(4-fluorophenyl)propanamide] | 20.5 | – | > 20000
